This note sets out measurements from EPA's ToxRefDB 2.

In series [1] the test system is dog. To be noted: Chronic toxicity, beagle, Oral, Feed, dose end: 12 month, group: systemic.
Series [2] concerns dog. The following applies: Chronic toxicity, beagle, Oral, Feed, dose end: 12 month.
For series [3], the system named is rat. The following applies: Multigenerational reproductive toxicity study, sprague dawley, Oral, Feed, dose end: 3 generation.
Series [4] relates to mouse. To be noted: Subchronic oral toxicity in rodents, b6c3f1, Gavage/Intubation, dose end: 17 week, group: systemic.
The subject of series [5] is rat. The following applies: Subchronic oral toxicity in rodents, fischer, Gavage/Intubation, dose end: 17 week, group: systemic.
Series [6] deals with rat. The following applies: Subchronic oral toxicity in rodents, Gavage/Intubation, dose end: 91 day.
Series [7] has as its system rat. To be noted: Multigenerational reproductive toxicity study, sprague dawley, Inhalation, Whole-Body, dose end: 2 generation.
In series [8] the test system is rat. The following applies: Prenatal developmental toxicity study, sprague dawley, Inhalation, Whole-Body, dose end: 15 GD.
The test system of series [9] is rat. The following applies: Chronic toxicity, sprague dawley, Oral, Feed, dose end: 24 month, group: systemic.
The subject of series [10] is mouse. To be noted: Chronic toxicity, other, Oral, Feed, dose end: 150 week, group: systemic.
The subject of series [11] is rat. To be noted: Chronic toxicity; sprague dawley; Oral; Feed; dose end: 52 week; group: systemic; systemic / pathology microscopic / liver / hypertrophy + systemic / pathology microscopic / thyroid gland / colloid content + systemic / ….
The test system of series [12] is rat. To be noted: Multigenerational reproductive toxicity study, Sprague Dawley, Oral, Gavage/Intubation, dose end: 2 generation.
In series [13] the test system is rat. The following applies: Multigenerational reproductive toxicity study, sprague dawley, Oral, Water, dose end: 3 generation.
The subject of series [14] is rat. The following applies: Multigenerational reproductive toxicity study, Oral, Gavage/Intubation, dose end: 2 generation.
Where [15] appears, read: systemic / in life observation / clinical signs / feces, discoloration.
[16] abbreviates: group: cholinesterase, cholinesterase / cholinesterase / cholinesterase / plasma cholinesterase (che).
[17] abbreviates: group: systemic, systemic / clinical chemistry / calcium / calcium + systemic / clinical chemistry / potassium / potassium + systemic / clinical chemistry / ….
[18] abbreviates: group: offspring, systemic / in life observation / body weight / offspring (pup) weight.
The mark [19] stands for this setting: group: offspring, systemic / in life observation / body weight / offspring (pup) weight + developmental / offspring survival late / viability index / ….
[20] abbreviates: group: parental, systemic / in life observation / body weight / body weight.
Setting [21] is: group: parental, systemic / in life observation / body weight / body weight + systemic / in life observation / food consumption / food consumption.
Where [22] appears, read: systemic / hematology / leukocyte (wbc) count differential / leukocyte (wbc) + systemic / hematology / lymphocyte / lymphocyte.
Where [23] appears, read: systemic / hematology / leukocyte (wbc) count differential / leukocyte (wbc) + systemic / hematology / lymphocyte / lymphocyte + systemic / ….
[24] abbreviates: group: maternal, reproductive / reproductive performance / estrous cycle / abnormal + reproductive / reproductive performance / estrous cycle / absent ….
Setting [25] is: group: systemic, systemic / clinical chemistry / albumin / albumin + systemic / clinical chemistry / cholesterol / cholesterol + systemic / clinical ….
The mark [26] stands for this setting: group: systemic, systemic / clinical chemistry / sodium / sodium + systemic / pathology microscopic / mammary gland / hyperplastic alveolar nodule + systemic….
The mark [27] stands for this setting: group: offspring, systemic / in life observation / body weight / offspring (pup) weight gain + systemic / in life observation / body weight / offspring (pup) ….
Where [28] appears, read: group: reproductive, reproductive / offspring survival early / litter viability other / litter viability + reproductive / reproductive performance / ….
Where [29] appears, read: group: developmental, systemic / in life observation / body weight / fetal weight.
[30] abbreviates: group: maternal, systemic / in life observation / body weight / body weight + systemic / in life observation / body weight / body weight gain.
Where [31] appears, read: group: maternal, systemic / in life observation / body weight / body weight + systemic / in life observation / body weight / body weight gain + systemic / in….
Where [32] appears, read: systemic / in life observation / body weight / body weight.
Where [33] appears, read: systemic / in life observation / body weight / body weight + systemic / organ weight / liver / absolute + systemic / organ weight / liver / ….
Where [34] appears, read: group: offspring, developmental / developmental landmark / vaginal opening / vaginal opening + systemic / clinical chemistry / luteinizing hormone (lh) / ….
Setting [35] is: group: offspring, systemic / in life observation / clinical signs / swimming time trial.
Setting [36] is: group: parental, systemic / in life observation / clinical signs / salivation + systemic / organ weight / ovary / absolute + systemic / organ weight / ovary….
Setting [37] is: group: reproductive, reproductive / offspring survival early / birth index / live birth index + reproductive / reproductive performance / implantations / ….
The mark [38] stands for this setting: group: offspring, systemic / pathology microscopic / liver / nuclear alteration.
[39] abbreviates: group: parental, systemic / pathology microscopic / liver / apoptosis.
The mark [40] stands for this setting: group: offspring, developmental / developmental malformation / bone / wavy.
[41] abbreviates: group: reproductive, reproductive / reproductive performance / gestational length / gestational length + reproductive / offspring survival early / dead fetuses….

As a reminder, the LOAEL is the lowest tested level that showed an adverse finding. As a reminder, the NOAEL is the highest tested level that showed no adverse finding. On to `CC1(C)C(=O)N(Cl)C(=O)N1Br` [Bromo-3-chloro-5,5-dimethylhydantoin], for which, in the series with dog [1] (setting [15]), the LEL stood at 120 mg/kg/day and the NEL was under 120 mg/kg/day. For the same compound, the LOAEL in the series with dog [1] (systemic / pathology microscopic / adrenal gland / hypertrophy) turned out to be 1510 mg/kg/day. Further, in the series with dog [1] (systemic / pathology microscopic / adrenal gland / hypertrophy + systemic / in life observation / clinical signs / feces, discoloration + …), the NOAEL worked out at 342 mg/kg/day.
On to `CNC(=O)Oc1cccc2c1OC(C)(C)C2` [Carbofuran], for which the LEL came to 0.5 mg/kg/day with dog [2] (setting [16]), 12.5 mg/kg/day in the series with dog [2] (setting [17]), 5 mg/kg/day in the series on rat [3] (setting [19]) and 1 mg/kg/day in the series with rat [3] (setting [20]). Moreover, the LOAEL in the series with dog [2] (setting [16]) was 0.5 mg/kg/day; in the series with dog [2] (setting [17]), over 12.5 mg/kg/day; in the series with rat [3] (setting [19]) it was 5 mg/kg/day; with rat [3] (setting [21]), 5 mg/kg/day. Besides, the NEL with dog [2] (setting [16]) was 0.25 mg/kg/day; with dog [2] (setting [17]) it was 0.5 mg/kg/day; with rat [3] (setting [18]) it was 1 mg/kg/day; in the series on rat [3] (setting [20]), under 1 mg/kg/day. Further, the NOAEL was 0.25 mg/kg/day with dog [2] (setting [16]), at least 12.5 mg/kg/day with dog [2] (setting [17]), 1 mg/kg/day with rat [3] (setting [18]) and 1 mg/kg/day with rat [3] (setting [21]).
Regarding `c1ccccc1` [Benzene], the LEL in the series with mouse [4] (setting [22]) was 50 mg/kg/day. In addition, in the series on mouse [4] (setting [23]), the LOAEL is over 600 mg/kg/day, the NEL was 25 mg/kg/day and the NOAEL is at least 600 mg/kg/day. In the series with rat [5] (setting [22]), the LEL amounted to 25 mg/kg/day and the NEL was under 25 mg/kg/day. In the series on rat [5] (setting [23]), the LOAEL is over 600 mg/kg/day and the NOAEL is at least 600 mg/kg/day.
In the case of `CS(=O)(=O)O.Cc1cc(CCN2CCN(c3nsc4ccccc34)CC2)cc2c1NC(=O)CC2(C)C`, in the series on rat [6] (setting [24]), the LEL turned out to be 10 mg/kg/day, the LOAEL was over 60 mg/kg/day, the NEL is under 10 mg/kg/day and the no observed adverse effect level (NOAEL) is at least 60 mg/kg/day. Also, in the series on rat [6] (setting [25]), the LOAEL was over 60 mg/kg/day and the NOAEL is at least 60 mg/kg/day. Besides, in the series on rat [6] (setting [26]), the LEL is 10 mg/kg/day and the NEL was under 10 mg/kg/day.
With `C1CO1` [Ethylene oxide], the LEL in the series on rat [7] (setting [27]) is 33 ppm; in the series on rat [7] (setting [20]), 33 ppm; with rat [7] (setting [28]), 33 ppm; with rat [8] (setting [29]), 50 ppm; with rat [8] (setting [30]), 125 ppm. The LOAEL with rat [7] (setting [27]) was determined as 33 ppm; with rat [7] (setting [20]), 33 ppm; in the series with rat [7] (setting [28]) it was 33 ppm; in the series with rat [8] (setting [29]), 50 ppm; in the series on rat [8] (setting [30]), 125 ppm. Besides, the NEL in the series on rat [7] (setting [27]) was 10 ppm; in the series on rat [7] (setting [20]), 10 ppm; in the series with rat [7] (setting [28]), 10 ppm; in the series with rat [8] (setting [29]) it was under 50 ppm; in the series on rat [8] (setting [31]), 50 ppm. Besides, the NOAEL with rat [7] (setting [27]) is 10 ppm; in the series on rat [7] (setting [20]), 10 ppm; in the series on rat [7] (setting [28]), 10 ppm; with rat [8] (setting [29]), under 50 ppm; in the series with rat [8] (setting [31]), 50 ppm.
Take `CCOC(=O)NC(=S)Nc1ccccc1NC(=S)NC(=O)OCC` [Thiophanate]: the results for the NEL in the series on rat [9] (setting [32]) and in the series with mouse [10] (systemic / pathology microscopic / ovary / cyst) were 10 mg/kg/day and 60 mg/kg/day, respectively. For the same compound, the NOAEL was 10 mg/kg/day in the series with rat [9] (setting [32]) and 60 mg/kg/day in the series on mouse [10] (systemic / pathology microscopic / testes / hypospermatogenesis + systemic / pathology microscopic / liver / fatty change). For the same compound, the results for the LEL in the series with rat [9] (setting [33]) and in the series with mouse [10] (systemic / pathology microscopic / testes / hypospermatogenesis + systemic / pathology microscopic / liver / fatty change + systemic / …) were 50 mg/kg/day and 300 mg/kg/day, respectively. The values for the LOAEL with rat [9] (setting [33]) and in the series with mouse [10] (systemic / pathology microscopic / testes / hypospermatogenesis) were 50 mg/kg/day and 300 mg/kg/day, respectively.
On to `C/C=C/C(=O)Oc1ccccc1[N+](=O)[O-].CCCCCCCC.O=NO` [Dinocap], for which, in the series with rat [11], the LEL worked out at 121 mg/kg/day, the lowest-observed-adverse-effect level (LOAEL) came to 121 mg/kg/day, the NEL amounted to 11.4 mg/kg/day and the NOAEL stood at 11.4 mg/kg/day.
`CCCCCCCCCc1ccccc1O` [Nonylphenol (mixed)]: the LOAEL in the series on rat [12] (setting [34]) is over 50 mg/kg/day; in the series on rat [12] (setting [36]), over 50 mg/kg/day; in the series with rat [12] (setting [37]), over 50 mg/kg/day; in the series on rat [13] (setting [38]) it was over 1.25 mg/kg/day; with rat [13] (setting [39]), over 1.25 mg/kg/day. In addition, the no observed adverse effect level (NOAEL) is at least 50 mg/kg/day in the series with rat [12] (setting [34]); at least 50 mg/kg/day in the series with rat [12] (setting [36]); at least 50 mg/kg/day in the series with rat [12] (setting [37]); at least 1.25 mg/kg/day in the series on rat [13] (setting [38]); at least 1.25 mg/kg/day in the series on rat [13] (setting [39]). The LEL was 2 mg/kg/day in the series with rat [12] (setting [35]); 50 mg/kg/day in the series with rat [12] (setting [36]); 50 mg/kg/day in the series with rat [12] (setting [37]); 1.25 mg/kg/day with rat [13] (setting [38]); 1.25 mg/kg/day with rat [13] (setting [39]). Further, the NEL in the series with rat [12] (setting [35]) was under 2 mg/kg/day; in the series on rat [12] (setting [36]), 10 mg/kg/day; with rat [12] (setting [37]), 10 mg/kg/day; in the series on rat [13] (setting [38]), under 1.25 mg/kg/day; with rat [13] (setting [39]), under 1.25 mg/kg/day.
As to `COc1ccc(C(=O)c2c(C)n(CCN3CCOCC3)c3ccccc23)cc1` [Pravadoline], in the series with rat [14] (setting [40]), the LEL was determined as 300 mg/kg/day, the LOAEL was over 300 mg/kg/day, the NEL stood at 100 mg/kg/day and the NOAEL was at least 300 mg/kg/day. Further, the NEL in the series with rat [14] (group: reproductive, reproductive / reproductive performance / gestational length / gestational length) came out at 100 mg/kg/day. Besides, in the series with rat [14] (setting [41]), the LEL was found to be 300 mg/kg/day, the lowest observed adverse effect level (LOAEL) is over 300 mg/kg/day and the no-observed-adverse-effect level (NOAEL) was at least 300 mg/kg/day.
